Results as given in US11167005B2, “Peptides for treating Sjogren's syndrome” (YEDA RESEARCH AND DEVELOPMENT CO. LTD., priority 2017, dated 2021).
“Also recorded” adds a separate entry of the source.

Columns and labels:
IDO [1] = test: IDO gene expression in PBMCs of pSS patients, real-time RT-PCR; type: cell-based, human; conditions: for IDO gene expression on addition of recombinant cytokine to cultures of PBMCs with hCDR1: compared with hCDR1 alone (FIG. 3C)
Protocol: Following 48 hours of incubation, cells were collected and mRNA was prepared from all samples. The expression of various genes was determined using real-time RT-PCR.
Thereafter, RNA was extracted from the cells and gene expression was determined by real-time RT-PCR.
Since both IL-1β and IFN-α were reported to increase the production and expression of IDO, the effects of the addition of recombinant IL-1β or IFN-α to cultures of PBMCs with hCDR1 on IDO gene expression were further tested.
(§1) The effect of IDO inhibition on the expression of the suppressive master gene FOXP3, that is expressed on functional T regulatory cells, was tested.

FOXP3 = FOXP3 gene expression in PBMCs of SS patients, real-time RT-PCR; type: cell-based, human
Protocol: (§2) 5×10^6/mL peripheral blood mononuclear cells (PBMCs) obtained from blood samples of rheumatoid arthritis (RA) patients, anti-phospholipid syndrome patients (APS) and SS patients were incubated in-vitro in: medium alone, medium containing 25 μg/mL hCDR1 (SEQ ID NO: 1), or medium containing 25 μg/mL of control scrambled peptide (SEQ ID NO: 2). Following 48 hours of incubation, cells were collected and mRNA was prepared from all samples. The expression of various genes was determined using real-time RT-PCR. The control peptide has the same amino acid residues as SEQ ID NO:1 in a scrambled order.
as §1

BLyS = BLyS gene expression in PBMCs of SS patients, real-time RT-PCR; type: cell-based, human; conditions: 25 μg/mL, 48 hours
Protocol: as §2

IDO [2] = test: IDO gene expression in PBMCs of subjects with RA; type: cell-based, human; conditions: 48 hours (FIG. 3B)
pathogenic cytokines [3] = test: Gene expression of pathogenic cytokines in PBMCs of rheumatoid arthritis patients; type: cell-based, human; conditions: 25 μg/mL, 48 hours, vs medium alone or control peptide (FIG. 1A)
Protocol: as §2

IL-1β = IL-1β gene expression in PBMCs of SS patients, real-time RT-PCR; type: cell-based, human; conditions: 25 μg/mL, 48 hours
Protocol: as §2

DNA = conditions: background statement; cited from earlier work
MX1 = MX1 gene expression in PBMCs of SS patients, real-time RT-PCR; type: cell-based, human; conditions: 25 μg/mL, 48 hours
Protocol: as §2

pathogenic cytokines [4] = test: Gene expression of pathogenic cytokines in PBMCs of anti-phospholipid syndrome patients; type: cell-based, human; conditions: 25 μg/mL, 48 hours, vs medium alone or control peptide (FIG. 1B)
Protocol: as §2

anti-DNA antibodies = conditions: background statement; cited from earlier work
[5] = Phase Ia and Ib clinical studies, humans; cited from earlier work
SLE patients = conditions: Phase II clinical trial in SLE patients (Urowitz et al. 2015); cited from earlier work
SLE in murine models = conditions: cited from earlier work
TNF-α = TNF-α gene expression in PBMCs of SS patients, real-time RT-PCR; type: cell-based, human; conditions: 25 μg/mL, 48 hours
Protocol: as §2

TGF-β = TGF-β gene expression in PBMCs of SS patients, real-time RT-PCR; type: cell-based, human; conditions: 48 hours; for expression of the gene for TGF-β: PBMCs isolated from SS patients, p=0.012 vs medium alone, p=0.028 vs control peptide
Protocol: as §2
PBMCs of patients with pSS were isolated and incubated in vitro for 48 hours in the presence of medium, hCDR1 (SEQ ID NO: 1) or a control scrambled peptide (SEQ ID NO: 2). Thereafter, RNA was extracted from the cells and gene expression was determined by real-time RT-PCR.

[6] = PBMCs of pSS patients, compared with hCDR1 alone (FIG. 3D)
[7] = vs medium alone and control scrambled peptide (FIG. 2)
[8] = IDO gene, PBMCs of SS patients, 48 hours
[9] = FOXP3 gene, PBMCs of SS patients, 25 μg/mL, 48 hours
[10] = TGF-β gene, PBMCs of SS patients

## Cn1cc(C[C@@H](N)C(=O)O)c2ccccc21 [1 mT, 1-methyl-D-tryptophan, reference compound]
IDO [1]; [6]
  IDO gene expression on addition of 1 mT to PBMC cultures with hCDR1: significant decrease
FOXP3; [6]
  FOXP3 expression on addition of 1 mT to PBMC cultures with hCDR1: significant down-regulation

## GYYWSWIRQPPGKGEEWIG [hCDR1, 19-amino-acid synthetic peptide based on CDR1 of the heavy chain of human anti-DNA mAb 16/6Id]
BLyS; [7]
  gene expression of the BLyS gene: significant reduction
BLyS; BLyS gene
  Modulation by hCDR1: Downregulation
  Percent responders exhibiting gene expression modulation, hCDR1 compared to control peptide: (50%)
  Percent responders exhibiting gene expression modulation, hCDR1 compared to medium: (70.5%)
  Responders/Total, hCDR1 compared to control peptide: 6/12
  Responders/Total, hCDR1 compared to medium: 12/17
IDO [2]
  expression of IDO: did not affect significantly
Pathogenic cytokines [3]
  gene expression of pathogenic cytokines: No significant effects; also recorded: non-significant effects
IL-1β; [7]
  gene expression of IL-1β: significant reduction; also recorded: significant effects
IL-1β; IL-1β gene
  Modulation by hCDR1: Downregulation
  Percent responders exhibiting gene expression modulation, hCDR1 compared to control peptide: (61.5%)
  Percent responders exhibiting gene expression modulation, hCDR1 compared to medium: (86%)
  Responders/Total, hCDR1 compared to control peptide: 8/13
  Responders/Total, hCDR1 compared to medium: 12/14
DNA
  binding to DNA: does not bind
MX1; [7]
  gene expression of MX1: significant reduction; also recorded: significant effects
MX1; MX1 gene
  Modulation by hCDR1: Downregulation
  Percent responders exhibiting gene expression modulation, hCDR1 compared to control peptide: (77%)
  Percent responders exhibiting gene expression modulation, hCDR1 compared to medium: (77%)
  Responders/Total, hCDR1 compared to control peptide: 10/13
  Responders/Total, hCDR1 compared to medium: 10/13
Pathogenic cytokines [4]
  gene expression of pathogenic cytokines: No significant effects; also recorded: non-significant effects
IDO [1]; [8]
  Modulation by hCDR1: Upregulation
  Percent responders exhibiting gene expression modulation, hCDR1 compared to control peptide: (69%)
  Percent responders exhibiting gene expression modulation, hCDR1 compared to medium: (81%)
  Responders/Total, hCDR1 compared to control peptide: 9/13
  Responders/Total, hCDR1 compared to medium: 13/16
IDO [1]; PBMCs of patients with pSS, 48 hours, vs medium alone or control peptide (FIG. 3A)
  expression of the IDO gene: up-regulated significantly
FOXP3; [9]
  Modulation by hCDR1: Upregulation
  Percent responders exhibiting gene expression modulation, hCDR1 compared to control peptide: (58%)
  Percent responders exhibiting gene expression modulation, hCDR1 compared to medium: (75%)
  Responders/Total, hCDR1 compared to control peptide: 7/12
  Responders/Total, hCDR1 compared to medium: 12/16
FOXP3; PBMCs of SS patients, 25 μg/mL, 48 hours, vs medium alone and control scrambled peptide (FIG. 2)
  gene expression of the FOXP3 gene: significant increase
anti-DNA antibodies
  binding to anti-DNA antibodies: does not bind
[5]
  safety and tolerability: safe and well tolerated
SLE patients
  effects on several parameters: beneficial effects
SLE in murine models
  serological and clinical disease manifestations of SLE: ameliorate serological and clinical disease manifestations
TNF-α; [7]
  gene expression of TNF-α: significant reduction; also recorded: significant effects
TNF-α; TNF-α gene
  Modulation by hCDR1: Downregulation
  Percent responders exhibiting gene expression modulation, hCDR1 compared to control peptide: (61.5%)
  Percent responders exhibiting gene expression modulation, hCDR1 compared to medium: (78.5%)
  Responders/Total, hCDR1 compared to control peptide: 8/13
  Responders/Total, hCDR1 compared to medium: 11/14
TGF-β
  expression of the gene for TGF-β: significantly up-regulated
TGF-β; [10]
  Modulation by hCDR1: Upregulation
  Percent responders exhibiting gene expression modulation, hCDR1 compared to control peptide: (72.7%)
  Percent responders exhibiting gene expression modulation, hCDR1 compared to medium: (70.5%)
  Responders/Total, hCDR1 compared to control peptide: 8/11
  Responders/Total, hCDR1 compared to medium: 12/17

## IFN-α
IDO [1]
  IDO gene expression on addition of recombinant cytokine to cultures of PBMCs with hCDR1: increased IDO gene expression to levels much higher

## IL-1β: recombinant IL-1β added to cultures of PBMCs with hCDR1
IDO [1]
  IDO gene expression on addition of recombinant cytokine to cultures of PBMCs with hCDR1: increased IDO gene expression to levels much higher

## SKGIPQYGGWPWEGWRYEI [control scrambled peptide, Control peptide, reference compound]
TGF-β
  expression of the gene for TGF-β: not
